Measurements as given in PubChem BioAssay AID256 (DTP/NCI, 2004).
Where “and” joins values, the source holds several entries; their conditions need not be identical. Equal values may be shown once. Toxic doses and inconclusive results are not listed.

Test system: CD2F1 mice, L1210 leukemia ip, survival T/C
Assay: NCI In Vivo Anticancer Drug Screen. Data for tumor model L1210 Leukemia (intraperitoneal) in CD2F1 (CDF1) mice
Conditions: higher = longer survival
Procedure: The antitumor activity of compounds was measured in mice bearing transplantable tumors. Survival or tumor size were measured and the results are expressed as the measurement made in the treated group (T) divided by the measurement made in the vehicle treated control group (C). The tumor model used in this assay is L1210 Leukemia (intraperitoneal) in CD2F1 (CDF1) mice

[1] = endpoint: mean survival time, dose: 100.0 mg/kg/injection, schedule: Q04DX003 (ip), vehicle: saline with Tween-80
[2] = endpoint: mean survival time, dose: 25.0 mg/kg/injection, schedule: Q01DX009 (ip), vehicle: saline with Tween-80
[3] = endpoint: mean survival time, dose: 50.0 mg/kg/injection, schedule: Q01DX009 (ip), vehicle: saline with Tween-80
[4] = endpoint: mean survival time, dose: 100.0 mg/kg/injection, schedule: Q01DX009 (ip), vehicle: saline with Tween-80
[5] = endpoint: mean survival time, dose: 200.0 mg/kg/injection, schedule: Q01DX009 (ip), vehicle: saline with Tween-80
[6] = endpoint: mean survival time, dose: 6.25 mg/kg/injection, schedule: Q01DX009 (ip), vehicle: saline with Tween-80
[7] = endpoint: mean survival time, dose: 12.5 mg/kg/injection, schedule: Q01DX009 (ip), vehicle: saline with Tween-80

Compound: CC1CC(C)CC(C)C(O)/C(C#N)=C/C=C/CC(C2CCCC2C(=O)O)OC(=O)CC(O)C(C)C1 (stereo unspecified)
- T/C (endpoint: mean survival time, dose: 1.56 mg/kg/injection, schedule: Q01DX009 (ip), vehicle: Klucel (hydroxypropylcellulose) (HPC)): 105 % of control
- T/C (endpoint: mean survival time, dose: 3.13 mg/kg/injection, schedule: Q01DX009 (ip), vehicle: Klucel (hydroxypropylcellulose) (HPC)): 109 % of control
- T/C (endpoint: mean survival time, dose: 6.25 mg/kg/injection, schedule: Q01DX009 (ip), vehicle: Klucel (hydroxypropylcellulose) (HPC)): 89 % of control and 96 % of control

Compound: Clc1ccc2c(c1)Nc1cc(Cl)ccc1C=C2
- T/C [1]: 98 % of control
- T/C (endpoint: mean survival time, dose: 200.0 mg/kg/injection, schedule: Q04DX003 (ip), vehicle: saline with Tween-80): 93 % of control
- T/C (endpoint: mean survival time, dose: 400.0 mg/kg/injection, schedule: Q04DX003 (ip), vehicle: saline with Tween-80): 87 % of control

Compound: CC(=O)c1cc([N+](=O)[O-])ccc1O
- T/C [2]: 90 % of control
- T/C [3]: 90 % of control
- T/C [4]: 88 % of control
- T/C [1]: 97 % of control

Compound: O=C1OC(OC(=O)c2ccccc2)C(Nc2ccccc2)=C1Br (stereo unspecified)
- T/C [4]: 101 % of control
- T/C [5]: 101 % of control
- T/C (endpoint: mean survival time, dose: 400.0 mg/kg/injection, schedule: Q01DX009 (ip), vehicle: saline with Tween-80): 97 % of control

Compound: CC(C)NC(=O)Oc1ccccc1C(=O)OCc1ccccc1
- T/C (endpoint: mean survival time, dose: 50.0 mg/kg/injection, schedule: Q01DX009 (ip), vehicle: Klucel (hydroxypropylcellulose) (HPC)): 115 % of control
- T/C (endpoint: mean survival time, dose: 100.0 mg/kg/injection, schedule: Q01DX009 (ip), vehicle: Klucel (hydroxypropylcellulose) (HPC)): 108 % of control
- T/C (endpoint: mean survival time, dose: 200.0 mg/kg/injection, schedule: Q01DX009 (ip), vehicle: Klucel (hydroxypropylcellulose) (HPC)): 112 % of control

Compound: O=S(=O)(O)O.[N-]=C(N)/N=C(\[NH-])N.[N-]=C(N)/N=C(\[NH-])N.[N-]=C(N)NC(=[N-])N.[Rh+3]
- T/C (endpoint: mean survival time, dose: 25.0 mg/kg/injection, schedule: Q04DX003 (ip), vehicle: saline): 96 % of control
- T/C (endpoint: mean survival time, dose: 100.0 mg/kg/injection, schedule: Q04DX003 (ip), vehicle: saline): 100 % of control

Compound: Oc1ccccc1-c1nnc(-c2ccccc2)o1
- T/C (endpoint: mean survival time, dose: 50.0 mg/kg/injection, schedule: Q04DX002 (ip), vehicle: saline with Tween-80): 91 % of control
- T/C (endpoint: mean survival time, dose: 100.0 mg/kg/injection, schedule: Q04DX002 (ip), vehicle: saline with Tween-80): 87 % of control
- T/C (endpoint: mean survival time, dose: 200.0 mg/kg/injection, schedule: Q04DX002 (ip), vehicle: saline with Tween-80): 95 % of control
- T/C (endpoint: mean survival time, dose: 400.0 mg/kg/injection, schedule: Q04DX002 (ip), vehicle: saline with Tween-80): 87 % of control

Compound: CCCCN1C(=O)C(=O)N(c2cc(OC)ccc2OC)C1=O
- T/C [3]: 86 % of control
- T/C [4]: 90 % of control
- T/C [5]: 86 % of control

Compound: c1ccc(-c2ccc(C3=NC(c4ccccc4)N4C3C4c3ccccc3)cc2)cc1 (stereo unspecified)
- T/C (endpoint: mean survival time, dose: 6.25 mg/kg/injection, schedule: Q01DX001 (ip), vehicle: saline with Tween-80): 103 % of control
- T/C [6]: 91 % of control
- T/C (endpoint: mean survival time, dose: 12.5 mg/kg/injection, schedule: Q01DX001 (ip), vehicle: saline with Tween-80): 86 % of control
- T/C [7]: 94 % of control
- T/C (endpoint: mean survival time, dose: 25.0 mg/kg/injection, schedule: Q01DX001 (ip), vehicle: saline with Tween-80): 92 % of control

Compound: O=C1CCC(=O)O1
- T/C [4]: 95 % of control
- T/C [5]: 102 % of control

Compound: O=C(O)C(Br)C(Br)C(=O)O (stereo unspecified)
- T/C (endpoint: mean survival time, dose: 50.0 mg/kg/injection, schedule: Q01DX001 (ip), vehicle: carboxymethylcellulose (CMC)): 98 % of control
- T/C (endpoint: mean survival time, dose: 100.0 mg/kg/injection, schedule: Q01DX001 (ip), vehicle: carboxymethylcellulose (CMC)): 93 % of control
- T/C (endpoint: mean survival time, dose: 200.0 mg/kg/injection, schedule: Q01DX001 (ip), vehicle: carboxymethylcellulose (CMC)): 95 % of control

Compound: COC1=C(OC)C(=O)C(SCc2ccc(OC)cc2)=CC1=O
- T/C [6]: 102 % of control
- T/C [7]: 91 % of control
- T/C [2]: 87 % of control

Compound: CNC(=O)Oc1ccc(S(=O)(=O)c2ccc(OC(=O)NC)cc2)cc1
- T/C (endpoint: median survival time, dose: 12.5 mg/kg/injection, schedule: Q01DX009 (ip), vehicle: saline with Tween-80): 103 % of control
- T/C (endpoint: median survival time, dose: 25.0 mg/kg/injection, schedule: Q01DX009 (ip), vehicle: saline with Tween-80): 115 % of control and 112 % of control
- T/C (endpoint: median survival time, dose: 43.0 mg/kg/injection, schedule: Q01DX005 (ip), vehicle: saline with Tween-80): 113 % of control
- T/C (endpoint: median survival time, dose: 43.0 mg/kg/injection, schedule: Q01DX009 (ip), vehicle: saline with Tween-80): 102 % of control
- T/C (endpoint: median survival time, dose: 50.0 mg/kg/injection, schedule: Q01DX009 (ip), vehicle: saline with Tween-80): 120 % of control
- T/C (endpoint: median survival time, dose: 72.0 mg/kg/injection, schedule: Q01DX005 (ip), vehicle: saline with Tween-80): 108 % of control and 109 % of control
- T/C (endpoint: median survival time, dose: 72.0 mg/kg/injection, schedule: Q01DX009 (ip), vehicle: saline with Tween-80): 101 % of control
- T/C (endpoint: median survival time, dose: 100.0 mg/kg/injection, schedule: Q01DX009 (ip), vehicle: saline with Tween-80): 122 % of control
- T/C (endpoint: median survival time, dose: 120.0 mg/kg/injection, schedule: Q01DX005 (ip), vehicle: saline with Tween-80): 109 % of control and 112 % of control
- T/C (endpoint: median survival time, dose: 120.0 mg/kg/injection, schedule: Q01DX009 (ip), vehicle: saline with Tween-80): 106 % of control
- T/C (endpoint: median survival time, dose: 200.0 mg/kg/injection, schedule: Q01DX005 (ip), vehicle: saline with Tween-80): 104 % of control and 109 % of control
- T/C (endpoint: median survival time, dose: 200.0 mg/kg/injection, schedule: Q01DX009 (ip), vehicle: saline with Tween-80): 151 % of control
- T/C (endpoint: median survival time, dose: 333.0 mg/kg/injection, schedule: Q01DX005 (ip), vehicle: saline with Tween-80): 109 % of control
